We go through 1 compound from PMC5218480 (PLoS ONE, 2017).

The assay has as its system MV-4-11 cells. Briefly: Gene expression microarray analysis (Affymetrix PrimeView) and GSEA. Conditions: ProbeSet 11745260_x_at; LIST B. Set-up: RFU PODN (11730768_x_at) / Fold change /veh PODN (11730768_x_at) / RFU LINC00158 (11744669_a_at) / Fold change /veh LINC00158 (11744669_a_at) / RFU DUSP10 (11751237_a_at) / Fold change /veh DUSP10 (11751237_a_at) / RFU ID3 (11757404_x_at) / Fold change /veh ID3 (11757404_x_at) / RFU PLEKHG5 (11737974_s_at) / Fold change /veh PLEKHG5 (11737974_s_at) / RFU LRRC4B (11730491_at) / Fold change /veh LRRC4B (11730491_at) / RFU GIMAP4 (11747438_a_at) / Fold change /veh GIMAP4 (11747438_a_at) / RFU KRT8 (11758183_x_at) / Fold change /veh KRT8 (11758183_x_at) / RFU CNN1 (11734310_a_at) / Fold change /veh CNN1 (11734310_a_at) / RFU VPS37D (11726825_at) / Fold change /veh VPS37D (11726825_at) / RFU C10orf10 (11716522_x_at) / Fold change /veh C10orf10 (11716522_x_at) / RFU KIR2DL2 /// KIR2DL4 /// KIR2DL5A /// KIR2DL5B /// KIR2DS1 /// KIR2DS2 /// KIR2DS3 /// KIR2DS4 /// KIR3DL3 /// KIR3DL3 /// KIR3DS1 (11738374_at) / Fold change /veh KIR2DL2 /// KIR2DL4 /// KIR2DL5A /// KIR2DL5B /// KIR2DS1 /// KIR2DS2 /// KIR2DS3 /// KIR2DS4 /// KIR3DL3 /// KIR3DL3 /// KIR3DS1 (11738374_at) / RFU C1QL1 (11718748_at) / Fold change /veh C1QL1 (11718748_at) / RFU TMPRSS4 (11747572_a_at) / Fold change /veh TMPRSS4 (11747572_a_at) / RFU HAMP (11756126_x_at) / Fold change /veh HAMP (11756126_x_at) / RFU RNFT2 (11725882_a_at) / Fold change /veh RNFT2 (11725882_a_at) / RFU NR4A2 (11747474_a_at) / Fold change /veh NR4A2 (11747474_a_at) / RFU ABCC12 (11746883_a_at) / Fold change /veh ABCC12 (11746883_a_at) / RFU TMEM136 (11760407_x_at) / Fold change /veh TMEM136 (11760407_x_at) / RFU CLDN22 /// WWC2 (11732394_at) / Fold change /veh CLDN22 /// WWC2 (11732394_at) / RFU HLA-DPB1 (11760878_x_at) / Fold change /veh HLA-DPB1 (11760878_x_at) / RFU SPINT1 (11716480_a_at) / Fold change /veh SPINT1 (11716480_a_at) / RFU GAP43 (11754022_s_at) / Fold change /veh GAP43 (11754022_s_at) / RFU A4GNT (11735810_at) / Fold change /veh A4GNT (11735810_at) / RFU PRB3 (11715151_x_at) / Fold change /veh PRB3 (11715151_x_at) / RFU TUBB4B (11761932_at) / Fold change /veh TUBB4B (11761932_at) / RFU CAPN14 (11732068_a_at) / Fold change /veh CAPN14 (11732068_a_at) / RFU TMCC2 (11721928_a_at) / Fold change /veh TMCC2 (11721928_a_at) / RFU IRGQ (11745062_a_at) / Fold change /veh IRGQ (11745062_a_at) / RFU FAM174B (11720279_a_at) / Fold change /veh FAM174B (11720279_a_at) / RFU TMPRSS4 (11748680_a_at) / Fold change /veh TMPRSS4 (11748680_a_at) / RFU FAM212B (11763350_a_at) / Fold change /veh FAM212B (11763350_a_at) / RFU PLEKHG5 (11743358_a_at) / Fold change /veh PLEKHG5 (11743358_a_at) / RFU ZSCAN30 (11745921_a_at) / Fold change /veh ZSCAN30 (11745921_a_at) / RFU CMKLR1 (11741424_a_at) / Fold change /veh CMKLR1 (11741424_a_at) / RFU LOC101060620 /// MAPK8IP1 (11723275_at) / Fold change /veh LOC101060620 /// MAPK8IP1 (11723275_at) / RFU SPTSSB (11747773_x_at) / Fold change /veh SPTSSB (11747773_x_at) / RFU PRSS12 (11739890_at) / Fold change /veh PRSS12 (11739890_at) / RFU BIN1 (11741810_x_at) / Fold change /veh BIN1 (11741810_x_at) / RFU WNT11 (11732464_a_at) / Fold change /veh WNT11 (11732464_a_at) / RFU C10orf10 (11716521_a_at) / Fold change /veh C10orf10 (11716521_a_at) / RFU C5orf56 (11738089_at) / Fold change /veh C5orf56 (11738089_at) / RFU CYB561 (11721691_x_at) / Fold change /veh CYB561 (11721691_x_at) / RFU ANKRD19P (11752326_a_at) / Fold change /veh ANKRD19P (11752326_a_at) / RFU OR2T12 /// OR2T33 /// OR2T8 (11738714_s_at) / Fold change /veh OR2T12 /// OR2T33 /// OR2T8 (11738714_s_at) / RFU VCAN (11748164_a_at) / Fold change /veh VCAN (11748164_a_at) / RFU JSRP1 (11732532_at) / Fold change /veh JSRP1 (11732532_at) / RFU KRTAP10-11 (11738290_x_at) / Fold change /veh KRTAP10-11 (11738290_x_at) / RFU MYO3A (11730013_a_at) / Fold change /veh MYO3A (11730013_a_at) / RFU EBF3 (11725865_a_at) / Fold change /veh EBF3 (11725865_a_at) / RFU CAMK2N1 (11719241_x_at) / Fold change /veh CAMK2N1 (11719241_x_at) / RFU C5orf56 (11738088_a_at) / Fold change /veh C5orf56 (11738088_a_at) / RFU OLFML3 (11715873_a_at) / Fold change /veh OLFML3 (11715873_a_at) / RFU LOC100653217 /// NTM (11731650_a_at) / Fold change /veh LOC100653217 /// NTM (11731650_a_at) / RFU MAPK11 (11762145_a_at) / Fold change /veh MAPK11 (11762145_a_at) / RFU FIZ1 (11724087_x_at) / Fold change /veh FIZ1 (11724087_x_at) / RFU OASL (11726364_x_at) / Fold change /veh OASL (11726364_x_at) / RFU SOX15 (11748057_x_at) / Fold change /veh SOX15 (11748057_x_at) / RFU CD79A (11719716_a_at) / Fold change /veh CD79A (11719716_a_at) / RFU HIST1H1D (11736915_at) / Fold change /veh HIST1H1D (11736915_at) / RFU CASKIN2 (11723855_a_at) / Fold change /veh CASKIN2 (11723855_a_at) / RFU LOC730098 (11760151_x_at) / Fold change /veh LOC730098 (11760151_x_at) / RFU OR4N2 (11742367_at) / Fold change /veh OR4N2 (11742367_at) / RFU PRRT2 (11749266_a_at) / Fold change /veh PRRT2 (11749266_a_at) / RFU SNX32 (11753110_a_at) / Fold change /veh SNX32 (11753110_a_at) / RFU CDHR5 (11726645_a_at) / Fold change /veh CDHR5 (11726645_a_at) / RFU RCAN1 (11760418_a_at) / Fold change /veh RCAN1 (11760418_a_at) / RFU FAM167A (11723789_a_at) / Fold change /veh FAM167A (11723789_a_at) / RFU FAM26E (11764081_at) / Fold change /veh FAM26E (11764081_at) / RFU ISYNA1 (11749810_s_at) / Fold change /veh ISYNA1 (11749810_s_at) / RFU ACY1 (11761880_at) / Fold change /veh ACY1 (11761880_at) / RFU 11764098_at / Fold change /veh 11764098_at / RFU SAMD14 (11745864_x_at) / Fold change /veh SAMD14 (11745864_x_at) / RFU NPB (11741838_a_at) / Fold change /veh NPB (11741838_a_at) / RFU TMPRSS6 (11731388_a_at) / Fold change /veh TMPRSS6 (11731388_a_at) / RFU KRTAP10-2 (11738614_at) / Fold change /veh KRTAP10-2 (11738614_at) / RFU ARHGAP8 /// PRR5-ARHGAP8 (11727945_x_at) / Fold change /veh ARHGAP8 /// PRR5-ARHGAP8 (11727945_x_at) / RFU KRTAP5-7 /// NADSYN1 (11734609_at) / Fold change /veh KRTAP5-7 /// NADSYN1 (11734609_at) / RFU RASL12 (11751679_a_at) / Fold change /veh RASL12 (11751679_a_at) / RFU CDKN2B (11736163_a_at) / Fold change /veh CDKN2B (11736163_a_at) / RFU PRF1 (11729649_at) / Fold change /veh PRF1 (11729649_at) / RFU, ZNF638 /// ZNF638-IT1 / Fold change vs veh, ZNF638 /// ZNF638-IT1 / RFU, PANK3 / Fold change vs veh, PANK3 / RFU, SH3YL1 / Fold change vs veh, SH3YL1 / RFU, ZEB2 / Fold change vs veh, ZEB2 / RFU, NRIP1 / Fold change vs veh, NRIP1 / RFU, PTTG1IP / Fold change vs veh, PTTG1IP / RFU, CAPN2 / Fold change vs veh, CAPN2 / RFU, MED14 / Fold change vs veh, MED14 / RFU, SNORA58 / Fold change vs veh, SNORA58 / RFU, C1orf63 / Fold change vs veh, C1orf63 / RFU, LRRFIP1 / Fold change vs veh, LRRFIP1 / RFU, NDUFAF7 / Fold change vs veh, NDUFAF7 / RFU, SLC12A2 / Fold change vs veh, SLC12A2 / RFU, IBTK / Fold change vs veh, IBTK / RFU, ESF1 / Fold change vs veh, ESF1 / Fold change vs veh, TMEM50B / RFU, TAOK1 / Fold change vs veh, TAOK1 / RFU, ACBD3 / Fold change vs veh, ACBD3 / RFU, TMA16 / Fold change vs veh, TMA16 / RFU, RWDD3 / Fold change vs veh, RWDD3 / RFU, BCAT1 / Fold change vs veh, BCAT1 / RFU, EDEM3 / Fold change vs veh, EDEM3 / RFU, TMEM33 / Fold change vs veh, TMEM33 / RFU, WDR75 / Fold change vs veh, WDR75 / RFU, AHCTF1 / Fold change vs veh, AHCTF1 / RFU, TFRC / Fold change vs veh, TFRC / RFU, ZDHHC17 / Fold change vs veh, ZDHHC17 / RFU, NOM1 / Fold change vs veh, NOM1 / RFU, ARL8B / Fold change vs veh, ARL8B / RFU, ZBTB11 / Fold change vs veh, ZBTB11 / RFU, TAMM41 / Fold change vs veh, TAMM41 / RFU, KIAA1704 /// LOC100996395 / Fold change vs veh, KIAA1704 /// LOC100996395 / RFU, ING1 / Fold change vs veh, ING1 / RFU, TRMT61B / Fold change vs veh, TRMT61B / RFU, FUBP3 / Fold change vs veh, FUBP3 / RFU, TP53 / Fold change vs veh, TP53 / RFU, TNKS2 / Fold change vs veh, TNKS2 / RFU, ZFP14 / Fold change vs veh, ZFP14 / RFU, ACTR2 / Fold change vs veh, ACTR2 / RFU, PPP3R1 / Fold change vs veh, PPP3R1 / RFU, PIK3R1 / Fold change vs veh, PIK3R1 / RFU, HNRNPA1 / Fold change vs veh, HNRNPA1 / RFU, RNF170 / Fold change vs veh, RNF170 / RFU, ZNF28 / Fold change vs veh, ZNF28 / RFU, RNGTT / Fold change vs veh, RNGTT / RFU, OGT / Fold change vs veh, OGT / RFU, BRD1 / Fold change vs veh, BRD1 / RFU, MARS / Fold change vs veh, MARS / RFU, ZNF655 / Fold change vs veh, ZNF655 / RFU, FAHD1 / Fold change vs veh, FAHD1 / RFU, BDP1 / Fold change vs veh, BDP1 / RFU, LRRCC1 / Fold change vs veh, LRRCC1 / RFU, ARID1A / Fold change vs veh, ARID1A / RFU, ZNF146 / Fold change vs veh, ZNF146 / RFU, ZNF330 / Fold change vs veh, ZNF330 / RFU, GPN3 / Fold change vs veh, GPN3 / RFU, C9orf123 / Fold change vs veh, C9orf123 / RFU, N4BP2L2 / Fold change vs veh, N4BP2L2 / RFU, ARFIP1 / Fold change vs veh, ARFIP1 / RFU, FAM179B / Fold change vs veh, FAM179B / RFU, BCL10 / Fold change vs veh, BCL10 / RFU, UHRF1BP1L / Fold change vs veh, UHRF1BP1L / RFU, BET1 / Fold change vs veh, BET1 / RFU, CNOT2 / Fold change vs veh, CNOT2 / RFU, ZNF268 / Fold change vs veh, ZNF268 / Fold change vs veh, ZNF507 / RFU, DGCR2 / Fold change vs veh, DGCR2 / RFU, WDSUB1 / Fold change vs veh, WDSUB1 / Fold change vs veh, HSP90B1 /// MIR3652 / RFU, ADSS / Fold change vs veh, ADSS / RFU, GK / Fold change vs veh, GK / RFU, ZNF148 / Fold change vs veh, ZNF148 / RFU, TAF9 / Fold change vs veh, TAF9 / RFU, SLC1A5 / Fold change vs veh, SLC1A5 / RFU, SLMO2 / Fold change vs veh, SLMO2 / RFU, ABCC4 / Fold change vs veh, ABCC4 / RFU, LOC101060439 /// RAP1B / Fold change vs veh, LOC101060439 /// RAP1B / RFU, RFX7 / Fold change vs veh, RFX7 / RFU, GTPBP10 / Fold change vs veh, GTPBP10 / RFU, CNEP1R1 / Fold change vs veh, CNEP1R1 / RFU, BIVM-ERCC5 /// ERCC5 / Fold change vs veh, BIVM-ERCC5 /// ERCC5 / RFU, ILF3 / Fold change vs veh, ILF3 / RFU 11762660_at / Fold change /veh 11762660_at / RFU VCAN (11757783_s_at) / Fold change /veh VCAN (11757783_s_at) / RFU DDX43 (11728927_at) / Fold change /veh DDX43 (11728927_at) / RFU KRT8 (11758188_x_at) / Fold change /veh KRT8 (11758188_x_at) / RFU NKD1 (11759106_at) / Fold change /veh NKD1 (11759106_at) / RFU SRD5A1 (11742802_a_at) / Fold change /veh SRD5A1 (11742802_a_at) / RFU TPSAB1 /// TPSB2 (11721975_s_at) / Fold change /veh TPSAB1 /// TPSB2 (11721975_s_at) / RFU GSTM3 (11746129_a_at) / Fold change /veh GSTM3 (11746129_a_at) / RFU IL23R (11737362_x_at) / Fold change /veh IL23R (11737362_x_at) / RFU TMEM51 (11727254_a_at) / Fold change /veh TMEM51 (11727254_a_at) / RFU PIWIL2 (11732686_x_at) / Fold change /veh PIWIL2 (11732686_x_at) / RFU ORM1 (11744905_x_at) / Fold change /veh ORM1 (11744905_x_at) / RFU CCDC152 (11743942_at) / Fold change /veh CCDC152 (11743942_at) / RFU ECM1 (11717891_a_at) / Fold change /veh ECM1 (11717891_a_at) / RFU IL23R (11748794_a_at) / Fold change /veh IL23R (11748794_a_at) / RFU TNFAIP8L3 (11732012_x_at) / Fold change /veh TNFAIP8L3 (11732012_x_at) / RFU MBOAT4 (11741988_at) / Fold change /veh MBOAT4 (11741988_at) / RFU 11764193_at / Fold change /veh 11764193_at / RFU TMEM53 (11763286_at) / Fold change /veh TMEM53 (11763286_at) / RFU MAGEB2 (11727129_at) / Fold change /veh MAGEB2 (11727129_at) / RFU TMEM200A (11744735_a_at) / Fold change /veh TMEM200A (11744735_a_at) / RFU CCDC152 (11751479_a_at) / Fold change /veh CCDC152 (11751479_a_at) / RFU FAM211A (11726209_a_at) / Fold change /veh FAM211A (11726209_a_at) / RFU RGS16 (11746705_a_at) / Fold change /veh RGS16 (11746705_a_at) / RFU VCAN (11755009_s_at) / Fold change /veh VCAN (11755009_s_at) / RFU RHOB (11743442_s_at) / Fold change /veh RHOB (11743442_s_at) / RFU RGS16 (11720943_a_at) / Fold change /veh RGS16 (11720943_a_at) / RFU RGS16 (11720944_at) / Fold change /veh RGS16 (11720944_at) / RFU, VPS4B / Fold change vs veh, VPS4B / RFU, CREB1 / Fold change vs veh, CREB1 / RFU, DNAJC13 / Fold change vs veh, DNAJC13 / RFU, GNAQ / Fold change vs veh, GNAQ / RFU, CDK5R1 / Fold change vs veh, CDK5R1 / RFU, ZRANB3 / Fold change vs veh, ZRANB3 / RFU, CUL4A / Fold change vs veh, CUL4A / RFU, CCNY / Fold change vs veh, CCNY / RFU, UFL1 / Fold change vs veh, UFL1 / RFU, COG3 / Fold change vs veh, COG3 / RFU, DIAPH2 / Fold change vs veh, DIAPH2 / RFU, SKA2 / Fold change vs veh, SKA2 / RFU, AFF3 / Fold change vs veh, AFF3 / RFU, LMF1 / Fold change vs veh, LMF1 / RFU, IPO11 / Fold change vs veh, IPO11 / RFU, DFFB / Fold change vs veh, DFFB / RFU, FOXP1 / Fold change vs veh, FOXP1 / RFU, CARD8 / Fold change vs veh, CARD8 / RFU, STRN3 / Fold change vs veh, STRN3 / RFU, ADK / Fold change vs veh, ADK / RFU, RASSF2 / Fold change vs veh, RASSF2 / RFU, WIPF1 / Fold change vs veh, WIPF1 / RFU, LARP1B / Fold change vs veh, LARP1B / RFU, RASA1 / Fold change vs veh, RASA1 / RFU, RB1 / Fold change vs veh, RB1 / RFU, PPFIA1 / Fold change vs veh, PPFIA1 / RFU, MAT2A / Fold change vs veh, MAT2A / RFU, CCT5 / Fold change vs veh, CCT5 / RFU, WDR92 / Fold change vs veh, WDR92 / RFU, CUX1 / Fold change vs veh, CUX1 / RFU, TTC7A / Fold change vs veh, TTC7A / RFU, TMEM135 / Fold change vs veh, TMEM135 / RFU, DEPTOR / Fold change vs veh, DEPTOR / RFU, CPM / Fold change vs veh, CPM / RFU, DNAJB6 / Fold change vs veh, DNAJB6 / RFU, CACNA2D3 / Fold change vs veh, CACNA2D3 / RFU, DTX4 / Fold change vs veh, DTX4 / RFU, TFCP2 / Fold change vs veh, TFCP2 / RFU, GMCL1 /// GMCL1P1 / Fold change vs veh, GMCL1 /// GMCL1P1 / RFU, AEBP2 / Fold change vs veh, AEBP2 / RFU, SNHG1 /// SNORD22 /// SNORD25 /// SNORD26 /// SNORD27 /// SNORD28 /// SNORD29 /// SNORD31 / Fold change vs veh, SNHG1 /// SNORD22 /// SNORD25 /// SNORD26 /// SNORD27 /// SNORD28 /// SNORD29 /// SNORD31 / Fold change (Aza/veh), C12orf56 (ProbeSet 11735607_a_at) / Fold change (ACY-1035/veh), C12orf56 (ProbeSet 11735607_a_at) / Fold change (Aza/veh), FGFR1OP (ProbeSet 11751329_s_at) / Fold change (ACY-1035/veh), FGFR1OP (ProbeSet 11751329_s_at) / Fold change (Aza/veh), VPS36 (ProbeSet 11739960_a_at) / Fold change (ACY-1035/veh), VPS36 (ProbeSet 11739960_a_at) / RFU SYPL1 (11715823_x_at) / Fold change /veh SYPL1 (11715823_x_at) / RFU IGFBP7 (11715501_s_at) / Fold change /veh IGFBP7 (11715501_s_at) / RFU REEP3 (11722064_at) / Fold change /veh REEP3 (11722064_at) / RFU IGLL1 (11728026_x_at) / Fold change /veh IGLL1 (11728026_x_at): dose or concentration left out as unconfirmed. Format: cell-based, human.

Structures are written as SMILES.

As to `Nc1ccc(-c2cccs2)cc1NC(=O)c1ccc2c(c1)cc(C1CC1)n2CCN1CCOCC1` [ACY-1035], the “RFU, SLC12A2” value is on record as 27.90 RFU.
